Results from patent US8975417B2, “Pyrazolopyrrolidine derivatives and their use in the treatment of disease” (Novartis AG, priority 2013, dated 2015).
pIC50: −log10 of the molar value.

Assays:
His-Brd4(44-477) = His-Brd4(44-477) (Homo sapiens (Human), UniProt O60885); assay: TR-FRET in-vitro binding assay for BRD4; details: biochemical
Method in brief: (§1)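 Eight-point dilution series tested against in-house His-BRD2(60-472), BRD3(20-477) or BRD4(44-477) (45 nM in dispensed solution) binding acetyl-histone H4 (AcK5,8,12,16; 60 nM in dispensed solution). Incubation 35 min at 30 °C, pH 7.5 HEPES buffer; detection by TR-FRET using Eu-anti-His6 and streptavidin-allophycocyanin.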

His-Brd2(60-472) = His-Brd2(60-472) (Homo sapiens (Human), UniProt P25440); assay: TR-FRET in-vitro binding assay for BRD2; details: biochemical
His-Brd2(60-472), sequence (P25440 60-472): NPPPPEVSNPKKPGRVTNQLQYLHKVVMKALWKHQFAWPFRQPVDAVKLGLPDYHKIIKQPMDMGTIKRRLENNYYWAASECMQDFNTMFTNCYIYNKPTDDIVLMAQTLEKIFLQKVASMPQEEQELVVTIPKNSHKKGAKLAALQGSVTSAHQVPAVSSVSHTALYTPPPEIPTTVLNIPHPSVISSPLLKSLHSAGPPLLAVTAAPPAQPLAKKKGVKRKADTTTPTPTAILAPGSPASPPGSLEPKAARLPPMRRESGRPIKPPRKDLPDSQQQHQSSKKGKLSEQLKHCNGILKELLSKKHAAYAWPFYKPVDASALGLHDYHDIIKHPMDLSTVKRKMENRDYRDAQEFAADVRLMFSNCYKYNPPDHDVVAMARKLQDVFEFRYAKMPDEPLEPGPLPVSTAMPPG
Method in brief: as §1

His-Brd3(20-477) = His-Brd3(20-477) (Homo sapiens (Human), UniProt Q15059); assay: TR-FRET in-vitro binding assay for BRD3; details: biochemical
His-Brd3(20-477), sequence (Q15059 20-477): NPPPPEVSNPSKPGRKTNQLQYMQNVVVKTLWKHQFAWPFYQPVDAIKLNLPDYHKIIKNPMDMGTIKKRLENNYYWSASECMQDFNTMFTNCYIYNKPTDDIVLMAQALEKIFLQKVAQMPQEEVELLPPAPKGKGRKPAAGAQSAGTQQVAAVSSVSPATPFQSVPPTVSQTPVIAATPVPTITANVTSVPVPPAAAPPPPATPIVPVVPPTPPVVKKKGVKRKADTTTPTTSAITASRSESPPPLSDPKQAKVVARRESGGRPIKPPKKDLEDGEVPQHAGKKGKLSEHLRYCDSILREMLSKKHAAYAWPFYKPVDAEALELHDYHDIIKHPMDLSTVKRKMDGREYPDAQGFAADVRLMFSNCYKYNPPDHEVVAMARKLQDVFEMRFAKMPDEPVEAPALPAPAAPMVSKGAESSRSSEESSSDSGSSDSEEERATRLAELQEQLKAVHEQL
Method in brief: as §1

MV-4-11 cells = assay: Cell growth inhibition assay (CellTiter-Glo), MV-4-11; format: cell-based; details: Homo sapiens, MV4-11, read-out: MV-4-11 TGI
Method in brief: (§2)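 Dose-response over 3-fold dilutions from 10 μM; 0.1% DMSO control. Endpoint: CellTiter-Glo ATP signal, background-subtracted and day 0-corrected.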

THP-1 cells = assay: Cell growth inhibition assay (CellTiter-Glo), THP-1; format: cell-based; details: Homo sapiens, read-out: THP-1 TGI
Method in brief: as §2

K-562 cells = assay: Cell growth inhibition assay (CellTiter-Glo), K-562; format: cell-based, human; details: Homo sapiens, K562, read-out: K-562 TGI
Method in brief: as §2

[1] = molecular target: nuclear BRD4-NUT foci in HCC2494 NUT midline carcinoma cells (Homo sapiens (Human), UniProt O60885+Q86Y26); assay: Nut-foci formation assay; format: cell-based; details: 24 hours, read-out: HCS Brd4-NUT IC50
Method: HCC2494 NUT midline carcinoma cells (expressing BRD4-NUT-fusion) were obtained from the University of Texas Southwestern and cultured in RPMI-1640 medium containing 10% Foetal Calf Serum at 37° C. in a humidified 5% CO2 incubator.
Compound-mediated inhibition of BRD4 activity was monitored by quantification of the number and intensity of nuclear BRD4-NUT foci using automated immunofluorescence microscopy. Briefly, 5000 cells in 20 μL fresh medium were seeded into Poly-D-Lysine-precoated 384-well plates and incubated overnight at 37° C. and 5% CO2, followed by addition of 5 μl medium containing compound dilutions at 5-fold their final intended concentration. Dose-response effects were assessed by 3-fold serial dilutions of the test compound, starting at 10 μM. Following incubation of the cells for 24 hours at 37° C. and 5% CO2, the cells were fixed by incubation with 3.7% formaldehyde for 10 min, followed by immunofluorescence staining using rabbit anti-NUT (Cell Signaling Technologies, Cat#3625) as primary, and AlexaFluor488-labeled goat anti-rabbit (Invitrogen, Cat#A11008) as secondary antibody (latter complemented with 1 μg/mL Hoechst33342 as DNA dye). Assay plates were imaged using the appropriate filter sets on the Cellomics VTi automated fluorescence microscopy platform (ThermoFisher Scientific) and the population average of the number of NUT-foci per nucleus is quantified using the Cellomics Spot Detection BioApplication image analysis algorithm (ThermoFisher Scientific). The effect of a particular test compound concentration on NUT-foci number and intensity is expressed as percentage of the value obtained for cells treated with vehicle only (DMSO, 0.1% final concentration), which was set as 100. Compound concentrations leading to half-maximal (IC50) inhibition of the aforementioned readout parameters were determined using standard four parameter curve fitting.

pIC50 (His-Brd4(44-477)) | pIC50 (His-Brd2(60-472)) | pIC50 (His-Brd3(20-477)) | pIC50 [1] | SMILES | IC (total growth inhibition) (MV-4-11 cells) | IC (total growth inhibition) (THP-1 cells) | IC (total growth inhibition) (K-562 cells)
7.14 | 7.11 | 7.19 | 6.93 | Cc1c2c(nn1C1CC1)C(=O)N(c1cc(Cl)c(=O)n(C)c1)[C@@H]2c1ccc(Cl)cc1 [Example 19, (R)-5-(5-chloro-1-methyl-6-oxo-1,6-dihydropyridin-3-yl)-4-(4-chlorophenyl)-2-cyclopropyl-3-methyl-4,5-dihydropyrrolo[3,4-c]pyrazol-6(2H)-one] | 0.043 µM | 0.125 µM | > 10 µM
7.10 | – | 7.10 | 7.19 | Cc1cc(N2C(=O)c3c(c(CO)nn3C3CC3)C2c2ccc(Cl)cc2)cn(C)c1=O (stereo not drawn) [Example 133, 4-(4-chlorophenyl)-1-cyclopropyl-5-(1,5-dimethyl-6-oxo-1,6-dihydropyridin-3-yl)-3-(hydroxymethyl)-4,5-dihydropyrrolo[3,4-c]pyrazol-6(1H)-one] | 0.102 µM | 0.327 µM | > 10 µM
6.80 | 6.72 | 6.89 | 7.04 | Cc1cc(N2C(=O)c3nn(C4COC4)c(C)c3C2c2ccc(Cl)cc2)cn(C)c1=O (stereo not drawn) [Example 134, 4-(4-chlorophenyl)-5-(1,5-dimethyl-6-oxo-1,6-dihydropyridin-3-yl)-3-methyl-2-(oxetan-3-yl)-4,5-dihydropyrrolo[3,4-c]pyrazol-6(2H)-one] | 0.187 µM | 0.291 µM | > 10 µM
6.54 | – | 6.62 | 6.07 | Cc1nn(C2CNC2)c2c1C(c1ccc(Cl)cc1)N(c1cc(C)c(=O)n(C)c1)C2=O (stereo not drawn) [Example 138, 1-(azetidin-3-yl)-4-(4-chlorophenyl)-5-(1,5-dimethyl-6-oxo-1,6-dihydropyridin-3-yl)-3-methyl-4,5-dihydropyrrolo[3,4-c]pyrazol-6(1H)-one] | 0.353 µM | 1.51 µM | > 10 µM
6.72 | 6.80 | 6.92 | 6.44 | Cc1cc(N2C(=O)c3nn(C4CN(C)C4)c(C)c3C2c2ccc(Cl)cc2)cn(C)c1=O (stereo not drawn) [Example 139, 4-(4-chlorophenyl)-5-(1,5-dimethyl-6-oxo-1,6-dihydropyridin-3-yl)-3-methyl-2-(1-methylazetidin-3-yl)-4,5-dihydropyrrolo[3,4-c]pyrazol-6(2H)-one] | 0.107 µM | 0.399 µM | > 10 µM

Further lines, the molecule ahead of its results:

SMILES | pIC50 (His-Brd4(44-477)) | pIC50 (His-Brd2(60-472)) | pIC50 (His-Brd3(20-477)) | pIC50 [1] | IC (total growth inhibition) (MV-4-11 cells) | IC (total growth inhibition) (THP-1 cells) | IC (total growth inhibition) (K-562 cells)
Cc1cc(N2C(=O)c3n[nH]cc3C2c2ccc(Cl)cc2)cn(C)c1=O (stereo not drawn) [Example 26, 4-(4-chlorophenyl)-5-(1,5-dimethyl-6-oxo-1,6-dihydropyridin-3-yl)-4,5-dihydropyrrolo[3,4-c]pyrazol-6(2H)-one] | 6.82 | 6.68 | – | 6.16 | 0.317 µM | 0.772 µM | > 10 µM
Cc1nn(C2CC2)c2c1[C@H](c1ccc(Cl)cc1)N(c1cc(C)c3nnc(C)n3n1)C2=O [Example 123, (S)-4-(4-chlorophenyl)-1-cyclopropyl-5-(3,8-dimethyl-[1,2,4]triazolo[4,3-b]pyridazin-6-yl)-3-methyl-4,5-dihydropyrrolo[3,4-c]pyrazol-6(1H)-one] | 4.85 | – | – | 5.05 | 5.81 µM | > 10 µM | > 10 µM
CNC(=O)n1nc2c(c1C)C(c1ccc(Cl)cc1)N(c1cc(C)c(=O)n(C)c1)C2=O (stereo not drawn) [Example 144, 4-(4-chlorophenyl)-5-(1,5-dimethyl-6-oxo-1,6-dihydropyridin-3-yl)-N,3-dimethyl-6-oxo-5,6-dihydropyrrolo[3,4-c]pyrazole-2(4H)-carboxamide] | 6.82 | 6.80 | 6.85 | 6.87 | 0.107 µM | 0.361 µM | > 10 µM
CNC(=O)n1nc2c(c1C)C(c1ccc(Cl)cc1)N(c1cc(C)c3nnc(C)n3c1)C2=O (stereo not drawn) [Example 146, 4-(4-chlorophenyl)-5-(3,8-dimethyl-[1,2,4]triazolo[4,3-a]pyridin-6-yl)-N,3-dimethyl-6-oxo-5,6-dihydropyrrolo[3,4-c]pyrazole-2(4H)-carboxamide] | 6.82 | 6.72 | 6.70 | 7.04 | 0.0546 µM | 0.283 µM | > 10 µM
CCc1nn(C(=O)N(C)C)c2c1C(c1ccc(Cl)cc1)N(c1cc(C)c(=O)n(C)c1)C2=O (stereo not drawn) [Example 147, 4-(4-chlorophenyl)-5-(1,5-dimethyl-6-oxo-1,6-dihydropyridin-3-yl)-3-ethyl-N,N-dimethyl-6-oxo-5,6-dihydropyrrolo[3,4-c]pyrazole-1(4H)-carboxamide] | 6.89 | 6.85 | 6.92 | 7.14 | 0.1 µM | 0.365 µM | > 10 µM
CNc1cc(N2C(=O)c3c(c(C)nn3C3CC3)[C@H]2c2ccc(Cl)cc2)nn2c(C)nnc12 [Example 161, (R)-4-(4-chlorophenyl)-1-cyclopropyl-3-methyl-5-(3-methyl-8-(methylamino)-[1,2,4]triazolo[4,3-b]pyridazin-6-yl)-4,5-dihydropyrrolo[3,4-c]pyrazol-6(1H)-one] | 7.68 | 7.48 | 7.62 | 7.40 | 0.102 µM | 0.152 µM | > 10 µM
